Reference: patent US20250205217A1, “METHODS OF IMPROVING CANCER IMMUNOTHERAPY” (THE REGENTS OF THE UNIVERSITY OF CALIFORNIA, priority 2022, published 2025)
Entries after “also recorded” stand apart in the source; their conditions may differ.

How the values were obtained:
B16F10 melanoma cells = assay: B16F10 melanoma tumor volume over time; type: in vivo, mice; settings: omega-6 rich diet; 5 mg/kg/day via drinking water + anti-CTLA4; vs either agent alone
Description: (§1) (A) MB49 bladder cancer tumor volume over time. Following 12 days of pre-treatment with the omega-6 rich diet, tumor cells (1×10^6 MB49 bladder cancer cells) were injected subcutaneously into the mid dorsum. Once tumors reached ˜200 mm^3, treatment was initiated with anti-PD1 (200 μg Q3D), EC5026 (5 mg/kg/day via drinking water), combination anti-PD1+EC5026, or no treatment (control). […] N=3-5 mice per group. P<0.05. (B) B16F10 melanoma tumor volume over time. […]. Following 12 days of pre-treatment with the omega-6 rich diet, tumor cells (1×10^6 B16F10 melanoma cells) were injected subcutaneously into the mid dorsum. Once tumors reached ˜200 mm^3, treatment was initiated with anti-CTLA4 (200 μg 1st dose, then 100 μg Q3D), 1770 (5 mg/kg/day via drinking water), combination 1770+anti-CTLA4, or no treatment (control). […] N=4-5 mice per group.
(A) MB49 bladder cancer tumor volume over time. Following 12 days of pre-treatment with the omega-3 rich diet or control diet, tumor cells (1×10^6 MB49 bladder cancer cells) were injected subcutaneously into the mid dorsum. Once tumors reached ˜200 mm^3, treatment was initiated with either anti-PD1 (200 μg Q3D) or no treatment (control). […] N=3-5 mice per group. p<0.0001. (B) Prostate cancer (RM1) tumor volume over time. […]

oxylipin = assay: LCMS/MS oxylipin analysis of MB49 bladder cancer tumor tissue; type: in vivo; settings: mice on the control diet only
Description: These lipid mediators are potential biomarkers of bladder cancer and the anti-tumor response to the diets (e.g. omega-3 or omega-6 fatty acids), immunotherapy (e.g., anti-PD1), and sEH inhibitor (e.g., 5026). (A) Heatmap of LCMS/MS oxylipin analysis performed on murine MB49 bladder cancer tumor tissue. […] Tumor tissue from mice treated with the control diet only. […] Tumor tissue from mice treated with the control diet only.

[1] = tested on: MB49 bladder cancer cells; assay: Murine bladder cancer model (MB49), subcutaneous tumor growth; type: in vivo, mice; settings: for MB49 tumor volume, combination with anti-PD1: omega-6 rich diet, 5 mg/kg/day via drinking water + anti-PD1 200 μg Q3D, vs either agent alone, P<0.05
Text: 10^6 MB49 cells were introduced into mice, and treatment was initiated with established tumors (˜200 mm^3), seven days after tumor injection. The CTLA-4 antibody used is from BioCell, Catalog number BE0131; In VivoMAb anti-mouse CTLA-4 (CD152). See, FIG. 1A and FIG. 1B.
The mice in this study were randomized, and treatment was initiated with established tumors (˜200 mm^3), seven days after […]. See, FIG. 2A-2C; FIG. 9A-9F.
(A & B). Mice were inoculated subcutaneously with 1×10^6 MB49 cells. Treatment initiated when MB49 tumors reached ˜200 mm^3. Mice were randomized and treated with PTUPB (60 mg/kg Q3D, orally) or chemotherapy (cisplatin+gemcitabine; cisplatin=5 mg/kg, gemcitabine=75 mg/kg, Q3D). Mice were sacrificed after 16 days of treatment. n=4-5 mice/group. Gene expression levels of sEH and COX-2 in tumor tissue after 16 days of treatment. Analyzed by qPCR and normalized by GAPDH. A: **Control vs chemotherapy (p=0.0099), **PTUPB vs chemotherapy (p=0.0095); B. **Control vs chemotherapy (p=0.0072), ***PTUPB vs chemotherapy (p=0.0001). (C) Mice were inoculated subcutaneously with 1×10^6 MB49 cells. Treatment initiated when MB49 tumors reached ˜200 mm^3. Mice were randomized and treated with combinations of PTUPB (60 mg/kg Q3D, orally), anti-PD1 (200 μg Q3D), anti-CTLA4 ([…]), chemotherapy (cisplatin+gemcitabine; cisplatin=5 mg/kg, gemcitabine=75 mg/kg, Q3D). Mice were sacrificed after 16 days of treatment. n=4-5 mice/group. *p<0.05. (D and E). Gene expression levels of EGF and VEGF-C in tumor tissue after 16 days of treatment. Analyzed by qPCR and normalized by GAPDH. D: *chemotherapy vs chemotherapy+PTUPB (p=0.0136); E: **Control vs anti-CTLA4 (p=0.0012), **PTUPB vs anti-CTLA4 (p=0.0081), **anti-CTLA4 vs anti-CTLA4+PTUPB (0.0296). (F) Mice were inoculated orthotopically into the bladder wall with 5×10^5 MB49 cells. Treatment was initiated 3 days after tumor injection with PTUPB (60 mg/kg Q3D, orally). n=5 mice per group. **PTUPB vs control (p=0.0018).
as §1
FIGS. 6A-6E Dietary omega-3 supplementation inhibits tumor growth in both fast-growing and slow-growing tumor models in mice. (A) Prostate cancer (RM1) tumor growth over time. Following 12 days of pre-treatment with the omega-3 rich diet or control diet, tumor cells (1×10^5 RM1 prostate cancer cells) were injected subcutaneously into the mid dorsum. […] N=3-5 mice/group. (B) MB49 bladder cancer tumor volume over time. Following 12 days of pre-treatment with the omega-3 rich diet or control diet, tumor cells (1×10^6 MB49 bladder cancer cells) were injected subcutaneously. […] N=3-5 mice/group. […]

## CCC(=O)N1CCC(NC(=O)Nc2ccc(OC(F)(F)F)cc2)CC1 [Compound 1770]
B16F10 melanoma cells
  B16F10 melanoma tumor volume, combination with anti-CTLA4: tended to have smaller tumors

## CC[C@H](C)C(=O)N1CCC(NC(=O)Nc2ccc(OC(F)(F)F)c(F)c2)CC1 [EC5026]
oxylipin
  levels of 7,8-DiHDPE, 17,18-DiHETE, and 15,16-DiHODE in MB49 bladder cancer tissue: prevented this increase
  levels of 15(16)-EpODE, 12(13)-EpOME, 17(18)-EpETE and 14(15)-EpETrE in MB49 bladder cancer tissue: prevented the drop in these metabolites, and increased levels of these metabolites compared to controls
[1]; 5 mg/kg/day
  MB49 tumor volume, combination with anti-PD1: significantly smaller tumors
[1]; listed as 5026, 5 mg/kg/day
  MB49 tumor volume, combination with anti-PD1: unexpected induction of tumor regression; also recorded: synergizes with immunotherapy

## NS(=O)(=O)c1ccc(-n2nc(CCCNC(=O)Nc3ccc(C(F)(F)F)cc3)cc2-c2ccccc2)cc1 [PTUPB]
[1]; 10^6 MB49 cells, established tumors (~200 mm^3), seven days after tumor injection, FIG. 1
  tumor growth, combination with immunotherapy (anti-CTLA-4): unexpected induction of tumor regression; also recorded: enhances immunotherapy
[1]; PTUPB 60 mg/kg Q3D orally, MB49, FIG. 9
  tumor growth, alone and with chemotherapy or immunotherapy: blocks tumor growth and enhances chemotherapy and immunotherapy
[1]; established MB49 tumors (~200 mm^3), 16 days of treatment, FIG. 2, FIG. 9
  tumor growth, combination with chemotherapy (gemcitabine and cisplatin) and immunotherapy: unexpected induction of tumor regression; also recorded: induce tumor regression
